Tests used:
Bcl-2 = assay: Western blotting of Bcl-2 in brain tissue; assay type: in vivo, C57BL/6 mice; conditions: brain tissue 24 h after administration, sham = 1.00; tPA 10 mg/kg alone or + T541 20 mg/kg or ingredients at Table 7 doses
Description: (§1) To compare the therapeutical effect on reperfusion injury caused by tPA thrombolysis between the traditional Chinese medicinal composition of the present invention and each ingredient (total saponins of Astragalus, the experiment was divided into the following group (tPA is combined with T541, individual ingredient thereof and compatibility of any two ingredients) specifically as follows: tPA+total saponins of Astragalus (tPA+HQ), tPA+ salvianolic acids (tPA+DS), tPA+Panax notoginseng saponins (tPA+SQ), tPA+ total saponins of Astragalus+salvianolic acids (tPA+HQ+DS), tPA+ total saponins of Astragalus+Panax notoginseng saponins (tPA+HQ+SQ), tPA+ salvianolic acids+Panax notoginseng saponins (tPA+DS+SQ) and tPA+T541. Normal saline served as an isovolumetric control. The usage number in each group is 6.
After reperfused for 24 hours, mice were perfused by normal saline; Western blotting analysis was conducted to the penumbra field of infarcted right cerebral cortex. […] Excessive supernatant was taken out and quantified by a BCA protein quantification liquor (ThermoScientific, US) to measure absorbance value at 560 nm of ELIASA and to calculate the protein concentration according to a standard curve. […] The density of electrophoretic strips was analyzed by an image analysis software Quantityone. […]

Bax = assay: Western blotting of Bax, endothelial cells after hypoxia/reoxygenation; assay type: cell-based; conditions: rat brain endothelial cells, hypoxia 4.5 h/reoxygenation 3 h; tPA 20 mcg/ml alone (model group); T541 400 mcg/ml + tPA 20 mcg/ml
Description: Establishment of rat brain endothelial cell H/R model: rat brain endothelial cells were purchased from ATCC, and then subcultured to 5-6 generations in normal conditions for further experiment. […]

8-OHdG = assay: ELISA of 8-OHdG in brain tissue; assay type: in vivo, C57BL/6 mice; conditions: brain tissue 24 hours after administration; tPA 10 mg/kg alone or + T541 20 mg/kg or ingredients at Table 7 doses
Description: as §1
ELISA adsorption kit was used to measure the change on the content of MDA, 8-hydroxyl-2′-deoxyguanosine (8-OHdG), adenosine triphosphate (ATP), adenosine diphosphate (ADP) and adenosine monophosphate (AMP) in the penumbra field of brain tissue cortex of the mode, and the change on the activity of mitochondrial complexes I, II, IV and V. 6 samples were used to repeat the independent experiment for at least three times for each group of data.

cerebral hemorrhage = assay: Hemoglobin in right hemisphere tissue (cerebral hemorrhage); assay type: in vivo, C57BL/6 mice; conditions: 24 h after administration, tPA 10 mg/kg alone, T541 20 mg/kg + tPA 10 mg/kg
Description: After reperfused for 24 hours, mice were perfused via heart by a PBS buffer precooled at 4° C. and separated brain via craniotomy; the brain was cut from front to back into 5 slices in a brain stereotaxic apparatus; bleeding condition was rapidly shoot by a stereoscopic microscope; then slices were stored at −80° C.; and hemoglobin was measured by a hemoglobin spectrophotometry cassette.

For “tPA: tissue-type plasminogen activator (tPA) for thrombolysis”, the Bcl-2 (Bcl-2) was 1.51 ± 0.14, the Bax (Bax) was 2.44 ± 0.51 and the Bax/Bcl-2 (Bax) was 4.57 ± 0.75. The 8-OHdG (8-OHdG) was 1.84 ± 0.11 and the Hemoglobin (cerebral hemorrhage) was 13.55 ± 3.72.

— patent US20210038668A1, “TRADITIONAL CHINESE MEDICINE COMPOSITION FOR PREVENTING AND/OR TREATING ISCHEMIC REPERFUSION INJURY” (TASLY PHARMACEUTICAL GROUP CO., LTD., priority 2018, published 2021)
